pIC50: −log10 of the molar value.
How the values were obtained:
[1] = molecular target: T1, Xanthine oxidase (from bovine milk) (Bos taurus, UniProt P80457); assay: XO assay with 6-MP substrate (6-thiouric acid formation, HPLC); type: biochemical; settings: for Effect on 6-TU formation at 20 μM: 20 μM test compound; for Effect on 6-TU formation at 0.25 μM: 0.25 μM test compound; for Effect on 6-TU formation at 3 μM: 3 μM test compound; for IC50 (6-MP)/IC50 (Xanthine): ratio of IC50 values, both substrates 5 μM
T1 construct: Xanthine oxidase (from bovine milk); purchased Sigma-Aldrich; host or cells: bovine milk (natural source)
T1 sequence (P80457 whole entry): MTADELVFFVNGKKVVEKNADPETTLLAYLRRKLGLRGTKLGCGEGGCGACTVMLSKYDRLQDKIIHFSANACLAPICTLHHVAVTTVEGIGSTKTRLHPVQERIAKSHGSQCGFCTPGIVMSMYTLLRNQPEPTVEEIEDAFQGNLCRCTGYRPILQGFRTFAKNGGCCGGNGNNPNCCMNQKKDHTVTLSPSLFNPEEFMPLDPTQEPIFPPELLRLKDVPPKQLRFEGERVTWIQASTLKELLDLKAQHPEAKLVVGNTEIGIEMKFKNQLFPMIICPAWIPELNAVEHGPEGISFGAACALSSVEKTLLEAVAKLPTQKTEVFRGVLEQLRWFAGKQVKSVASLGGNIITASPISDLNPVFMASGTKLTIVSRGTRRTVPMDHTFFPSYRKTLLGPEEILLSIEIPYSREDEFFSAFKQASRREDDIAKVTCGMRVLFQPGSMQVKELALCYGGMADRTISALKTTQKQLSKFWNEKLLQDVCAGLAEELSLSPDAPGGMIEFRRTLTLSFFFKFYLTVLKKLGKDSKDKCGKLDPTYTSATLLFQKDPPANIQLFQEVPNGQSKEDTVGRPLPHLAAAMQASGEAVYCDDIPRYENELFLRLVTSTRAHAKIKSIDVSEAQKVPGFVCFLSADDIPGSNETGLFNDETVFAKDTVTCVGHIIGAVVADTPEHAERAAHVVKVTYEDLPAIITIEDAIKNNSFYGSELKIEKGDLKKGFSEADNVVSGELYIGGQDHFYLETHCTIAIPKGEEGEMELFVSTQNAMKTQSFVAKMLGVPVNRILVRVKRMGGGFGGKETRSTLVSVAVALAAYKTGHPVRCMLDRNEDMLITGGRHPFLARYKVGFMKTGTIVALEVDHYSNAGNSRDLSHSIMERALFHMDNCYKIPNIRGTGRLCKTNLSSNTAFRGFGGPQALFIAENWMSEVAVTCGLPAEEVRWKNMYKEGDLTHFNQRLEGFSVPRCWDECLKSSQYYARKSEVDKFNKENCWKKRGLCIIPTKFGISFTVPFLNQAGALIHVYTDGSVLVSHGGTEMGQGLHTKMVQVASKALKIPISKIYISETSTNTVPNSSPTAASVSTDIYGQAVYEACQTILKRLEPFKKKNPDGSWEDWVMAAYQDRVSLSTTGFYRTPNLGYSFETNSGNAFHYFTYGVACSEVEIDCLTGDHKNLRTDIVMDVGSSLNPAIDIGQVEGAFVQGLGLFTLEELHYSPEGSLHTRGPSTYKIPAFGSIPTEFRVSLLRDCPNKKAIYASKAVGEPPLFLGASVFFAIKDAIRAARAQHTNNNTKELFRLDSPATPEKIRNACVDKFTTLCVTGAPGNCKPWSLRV
Description: The incubations were carried out in 0.05 M sodium phosphate buffer (pH 7.5; final volume of incubates: 500 μL). The reaction started with the addition of the enzyme, and was stopped with 30 μL of 6 M HClO4 20, 40, or 60 min later. Thereafter, the samples were vortexed and centrifuged at 14,000× g for 5 min at room temperature. A 300-μL aliquot of the supernatant was carefully removed, after which 36 μL of 1 M KOH was added to these aliquots. Samples were cooled to 4 °C to enhance the precipitation of the formed KClO4, and centrifuged at 14,000× g for 5 min at 4 °C. The supernatants were carefully removed and the substrate together with metabolites were analyzed by HPLC (see details in Section 4.5). 6-MP is oxidized to 6-TX followed by 6-TU in the two-step reaction.
Quantitation of 6-MP, 6-TX, and 6-TU was performed by the previously described method with minor modifications.

[2] = system: XO; settings: cited from earlier work
[3] = molecular target: T1, Xanthine oxidase (from bovine milk); assay: XO assay with xanthine substrate (uric acid formation, HPLC); type: biochemical; settings: for Effect on urate formation at 10 μM: 10 μM flavonoid, 15 min preincubation, 8 min; for Effect on uric acid formation at 20 μM: 20 μM test compound (four-fold vs. substrate)
Description: Xanthine (5 μM) was incubated with 0.0012 U/mL XO in the absence or presence of inhibitors (0–20 μM). Incubations were started with the addition of the enzyme (final volume of incubates: 500 μL), and stopped after 4, 8, and 12 min with 30 μL of 6 M HClO4. Thereafter, the samples were vortexed, after which 97 μL of 1 M KOH was added, then samples were cooled to 4 °C and centrifuged. Other experimental conditions were the same as described in Section 4.2. Xanthine and uric acid were quantified by HPLC (see details in Section 4.5).
(§1) Quantification of xanthine, hypoxanthine, and uric acid was performed by the previously described method with minor modifications.

[4] = molecular target: T1, Xanthine oxidase (from bovine milk); assay: XO assay with hypoxanthine substrate (xanthine + uric acid formation, HPLC); type: biochemical
Description: The experiments were started with the addition of the enzyme and stopped after 4 min with 30 μL of 6 M HClO4. Other experimental conditions were the same as described in Section 4.3. XO-catalyzed oxidation of hypoxanthine results in the formation of xanthine and uric acid in two consecutive steps.
as §1

[5] = cited from earlier work; for Therapeutic peak plasma concentrations: single 200 mg oral dose of APU
[6] = cited from earlier work
[7] = cited from earlier work; remark: listed apart in the source
[8] = cited from earlier work; remark: listed apart in the source
[9] = 5 μM 6-MP, 40 min incubation, 6-TU formation, read-out: 6-MP Oxidation IC50
[10] = 5 μM xanthine, 8 min incubation, uric acid formation, read-out: Xanthine Oxidation IC50

SMILES: O=C(O)Cc1ccccc1O [2HPAA, 2-Hydroxyphenylacetic acid]
- Effect on 6-TU formation at 20 μM ([1]; 5 μM 6-MP): significant decreases

SMILES: O=c1c(OS(=O)(=O)O)c(-c2ccc(O)c(O)c2)oc2cc(O)cc(O)c12 [Q-3-sulfate]
- Inhibition of XO-catalyzed xanthine oxidation [2]: inhibited XO only at very high concentrations

SMILES: O=c1c(O)c(-c2ccc(O)c(OS(=O)(=O)O)c2)oc2cc(O)cc(O)c12 [Q3′S, Quercetin-3′-sulfate]
- Effect on 6-TU formation at 0.25 μM ([1]; 5 μM 6-MP): significantly decreased
- Effect on 6-TU formation at 3 μM ([1]; 5 μM 6-MP): almost completely inhibited
- pIC50 [1, 9]: 6.30
- IC50 (6-MP)/IC50 (Xanthine) [1]: 1.25
- pIC50 [3, 10]: 6.40
- Effect on urate formation at 10 μM ([3]; 5 μM xanthine): almost completely abolished
- pIC50 ([4]; 5 μM hypoxanthine, 4 min incubation, xanthine + uric acid formation, read-out: Hypoxanthine oxidation IC50): 6.68

SMILES: CC(=O)c1ccc(O)cc1O [24DHAP, 2,4-Dihydroxyacetophenon]
- Effect on 6-TU formation at 20 μM ([1]; 5 μM 6-MP): significant decreases

SMILES: O=C(O)Cc1ccc(O)cc1 [4HPAA, 4-hydroxyphenylacetic acid]
- Effect on 6-TU formation at 20 μM ([1]; 5 μM 6-MP): significant decreases

SMILES: O=C(O)C1OC(Oc2c(-c3ccc(O)c(O)c3)oc3cc(O)cc(O)c3c2=O)C(O)C(O)C1O (stereo not drawn) [Q3G, Quercetin-3-glucuronide]
- pIC50 [1, 9]: < 4.70
- Effect on 6-TU formation at 20 μM ([1]; 5 μM 6-MP): did not inhibit
- pIC50 [3, 10]: < 4.70
- Effect on uric acid formation at 20 μM ([3]; 5 μM xanthine): did not inhibit
- Inhibition of XO-catalyzed xanthine oxidation [2]: only weak inhibitors

SMILES: O=C(O)[C@H]1O[C@@H](Oc2cc(-c3oc4cc(O)cc(O)c4c(=O)c3O)ccc2O)[C@H](O)[C@@H](O)[C@@H]1O [Q-3′-glucuronide]
- Inhibition of XO-catalyzed xanthine oxidation [2]: similarly strong inhibitors of xanthine oxidation as Q

SMILES: O=C(O)CCc1ccc(O)cc1O [324DHPPA, 3-(2,4-Dihydroxyphenyl)propionic acid]
- Effect on 6-TU formation at 20 μM ([1]; 5 μM 6-MP): significant decreases

SMILES: O=C(O)CCc1cccc(O)c1 [33HPPA, 3-(3-Hydroxyphenyl)propionic acid]
- Effect on 6-TU formation at 20 μM ([1]; 5 μM 6-MP): significant decreases

SMILES: Oc1ncnc2[nH]ncc12 [APU, Allopurinol, reference compound]
- Effect on 6-TU formation at 3 μM ([1]; 5 μM 6-MP): only a slight effect
- Therapeutic peak plasma concentrations [5]: 35 to 40 µM

SMILES: COc1ccc(CC(=O)O)cc1O [3H4MPAA, 3-Hydroxy-4-methoxyphenylacetic acid]
- Effect on 6-TU formation at 20 μM ([1]; 5 μM 6-MP): significant decreases

SMILES: Oc1cccc(O)c1O [PYR, Pyrogallol]
- pIC50 [1, 9]: 5.00
- Effect on 6-TU formation at 20 μM ([1]; 5 μM 6-MP): significant decreases
- inhibition at 20 µM ([1]; 20 μM, 5 μM 6-MP, read-out: Inhibitory effect on 6-MP oxidation at 20 μM): > 50%
- IC50 (6-MP)/IC50 (Xanthine) [1]: 5.61
- pIC50 [3, 10]: 5.74
- Effect on uric acid formation at 20 μM ([3]; 5 μM xanthine): inhibited of uric acid formation significantly
- inhibition at 20 µM ([3]; 20 μM, 5 μM xanthine, read-out: Inhibitory effect on xanthine oxidation at 20 μM): > 50%

SMILES: O=C(O)[C@H]1O[C@@H](Oc2cc(O)c3c(=O)c(O)c(-c4ccc(O)c(O)c4)oc3c2)[C@H](O)[C@@H](O)[C@@H]1O [Q-7-glucuronide]
- Inhibition of XO-catalyzed xanthine oxidation [2]: only weak inhibitors

SMILES: O=C(O)/C=C/c1cccc(O)c1 [3CA, 3-Coumaric acid]
- Effect on 6-TU formation at 20 μM ([1]; 5 μM 6-MP): significant decreases

SMILES: O=C(O)c1ccc(O)cc1 [4HBA, 4-Hydroxybenzoic acid]
- Effect on 6-TU formation at 20 μM ([1]; 5 μM 6-MP): significant decreases

SMILES: O=C(O)Cc1ccc(CO)cc1 [4HMPAA, 4-(Hydroxymethyl)phenylacetic acid]
- Effect on 6-TU formation at 20 μM ([1]; 5 μM 6-MP): significant decreases

SMILES: COc1cc(-c2oc3cc(O)cc(O)c3c(=O)c2O)ccc1O [IR, Isorhamnetin]
- pIC50 [1]: 6.22
- Effect on 6-TU formation at 3 μM ([1]; 5 μM 6-MP): almost completely inhibited
- IC50 (6-MP)/IC50 (Xanthine) [1]: 0.86
- pIC50 [3]: 6.15
- Effect on urate formation at 10 μM ([3]; 5 μM xanthine): almost completely abolished

SMILES: COc1ccc(-c2oc3cc(O)cc(O)c3c(=O)c2O)cc1O [TAM, Tamarixetin]
- Effect on 6-TU formation at 0.25 μM ([1]; 5 μM 6-MP): significantly decreased
- Effect on 6-TU formation at 3 μM ([1]; 5 μM 6-MP): almost completely inhibited
- pIC50 [1, 9]: 6.70
- IC50 (6-MP)/IC50 (Xanthine) [1]: 1.00
- pIC50 [3, 10]: 6.70
- Effect on urate formation at 10 μM ([3]; 5 μM xanthine): almost completely abolished

SMILES: O=c1c(O)c(-c2ccc(O)c(O)c2)oc2cc(O)cc(O)c12 [Q, Quercetin]
- Effect on 6-TU formation at 0.25 μM ([1]; 5 μM 6-MP): only weak inhibitory action
- Effect on 6-TU formation at 3 μM ([1]; 5 μM 6-MP): almost completely inhibited
- Effect on urate formation at 10 μM ([3]; 5 μM xanthine): almost completely abolished
- Serum urate levels in hyperuricemic mice ([6]; 100 mg/kg, hyperuricemic mice): decreased the serum urate levels
- Serum urate levels in normal or hyperuricemic mice ([6]; 400 mg/kg orally administered): failed to decrease the serum urate levels
- Oral bioavailability [7]: low
- Serum uric acid levels, human ([8]; 1000 or 2000 mg/day): does not influence the serum uric acid levels
- Serum urate, human ([8]; four-week treatment, 500 mg/day): minimal reduction in serum urate
- Peak plasma concentrations of total Q ([5]; repeated daily oral administration of 1000 mg Q): low micromolar range

SMILES: O=C(O)c1ccccc1 [BA, Benzoic acid]
- Effect on 6-TU formation at 20 μM ([1]; 5 μM 6-MP): significant decreases

SMILES: O=C(O)c1ccc(O)cc1O [24DHBA, 2,4-Dihydroxybenzoic acid]
- Effect on 6-TU formation at 20 μM ([1]; 5 μM 6-MP): significant decreases

SMILES: COc1cc(-c2oc3cc(O)cc(O)c3c(=O)c2OC2OC(C(=O)O)C(O)C(O)C2O)ccc1O (stereo not drawn) [I3G, Isorhamnetin-3-glucuronide]
- pIC50 [1, 9]: < 4.70
- Effect on 6-TU formation at 20 μM ([1]; 5 μM 6-MP): did not inhibit
- pIC50 [3, 10]: < 4.70
- Effect on uric acid formation at 20 μM ([3]; 5 μM xanthine): did not inhibit

SMILES: O=C(O)CCc1ccc(O)cc1 [34HPPA, 3-(4-Hydroxyphenyl)propionic acid]
- Effect on 6-TU formation at 20 μM ([1]; 5 μM 6-MP): significant decreases

SMILES: O=C(O)CNC(=O)c1ccccc1 [HIPA, Hippuric acid]
- Effect on 6-TU formation at 20 μM ([1]; 5 μM 6-MP): significant decreases

SMILES: O=C(O)[C@H]1O[C@@H](Oc2ccc(-c3oc4cc(O)cc(O)c4c(=O)c3O)cc2O)[C@H](O)[C@@H](O)[C@@H]1O [Q-4′-glucuronide]
- Inhibition of XO-catalyzed xanthine oxidation [2]: similarly strong inhibitors of xanthine oxidation as Q

SMILES: COc1ccc(C(=O)O)c(O)c1 [2H4MBA, 4-Methoxysalicylic acid]
- Effect on 6-TU formation at 20 μM ([1]; 5 μM 6-MP): significant decreases
- Effect on uric acid formation at 20 μM ([3]; 5 μM xanthine): inhibited of uric acid formation significantly

SMILES: O=c1[nH]c(=O)c2c[nH]nc2[nH]1 [Oxipurinol, oxipurinol, reference compound]
- pIC50 [1, 9]: 5.00
- pIC50 [3, 10]: 5.35
- pIC50 [4]: < 5.52
- Therapeutic peak plasma concentrations [5]: 35 to 40 µM

SMILES: O=C(O)CCc1ccccc1 [3PPA, 3-Phenylpropionic acid]
- Effect on 6-TU formation at 20 μM ([1]; 5 μM 6-MP): significant decreases

— article PMC6600370 (International Journal of Molecular Sciences, 2019)
